PMC2222622, “The DeoR-type transcriptional regulator SugR acts as a repressor for genes encoding the phosphoenolpyruvate:sugar phosphotransferase system (PTS) in Corynebacterium glutamicum” (BMC Molecular Biology, 2007)

Target: T1, SugR (Corynebacterium glutamicum, UniProt Q8NP85)
T1 construct: gene Cgl1931; expressed in E. coli ER2566 from pTYB1 (pLGI1, 777 bp sugR without stop codon) as C-terminal intein fusion, tag self-cleaved, no extra residues
T1 sequence (Q8NP85 1-259): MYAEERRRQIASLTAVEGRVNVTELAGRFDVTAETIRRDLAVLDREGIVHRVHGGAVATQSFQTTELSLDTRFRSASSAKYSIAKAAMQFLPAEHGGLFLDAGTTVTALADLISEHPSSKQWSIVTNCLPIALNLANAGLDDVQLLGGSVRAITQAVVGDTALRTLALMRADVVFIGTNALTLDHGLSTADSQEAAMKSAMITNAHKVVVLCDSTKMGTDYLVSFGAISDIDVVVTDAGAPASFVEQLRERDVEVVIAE
Test: EMSA, release of SugR from Cy3-labelled DNA fragment I2
Format: binding
Conditions: negative effector; 15 pmol SugR, 0.05 pmol DNA I2 (ptsI-cg2118 intergenic region), 1 mM MgCl2, pH 7.5, RT; threshold of effect, not an IC50

concentration needed for significant effect: > 10 mM
SMILES: O=P(O)(O)OC[C@H]1OC(O)[C@H](O)[C@@H](O)[C@@H]1O (stereo partly shown) [G-6-P, glucose-6-phosphate]
